Article PMC3591093, “De novo modeling of the F420-reducing [NiFe]-hydrogenase from a methanogenic archaeon by cryo-electron microscopy” (eLife, 2013)

Columns and labels:
[1] = biological target: T1, Frh complex (FrhABG), F420-reducing [NiFe]-hydrogenase (Methanothermobacter marburgensis, UniProt D9PYF6); experiment: cryo-EM structure (map with versus without F420); type: binding; conditions: 0.5, 1.0 or 10 mM F420, oxygen-free; site in FrhB next to FAD isoalloxazine; only the isoalloxazine-like ring modelled, weak density
T1 construct: gene frhB; FrhA C-terminus after His386 removed in maturation; FrhG most probably starts at Val39 of the 275-residue annotation; FrhA 45, FrhG 26, FrhB 31 kDa; with Coenzyme F420 hydrogenase subunit alpha; Coenzyme F420 hydrogenase subunit gamma
T1 sequence (D9PYF6 1-281): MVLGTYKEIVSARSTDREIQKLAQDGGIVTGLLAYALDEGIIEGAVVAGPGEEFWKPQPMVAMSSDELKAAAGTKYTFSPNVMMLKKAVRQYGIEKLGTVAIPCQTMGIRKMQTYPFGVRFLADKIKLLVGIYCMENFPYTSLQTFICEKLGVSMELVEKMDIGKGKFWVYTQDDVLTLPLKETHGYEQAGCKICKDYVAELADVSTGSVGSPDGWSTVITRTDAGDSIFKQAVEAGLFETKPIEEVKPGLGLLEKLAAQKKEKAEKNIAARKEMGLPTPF
T1 sequence (D9PYF9 1-386 partner): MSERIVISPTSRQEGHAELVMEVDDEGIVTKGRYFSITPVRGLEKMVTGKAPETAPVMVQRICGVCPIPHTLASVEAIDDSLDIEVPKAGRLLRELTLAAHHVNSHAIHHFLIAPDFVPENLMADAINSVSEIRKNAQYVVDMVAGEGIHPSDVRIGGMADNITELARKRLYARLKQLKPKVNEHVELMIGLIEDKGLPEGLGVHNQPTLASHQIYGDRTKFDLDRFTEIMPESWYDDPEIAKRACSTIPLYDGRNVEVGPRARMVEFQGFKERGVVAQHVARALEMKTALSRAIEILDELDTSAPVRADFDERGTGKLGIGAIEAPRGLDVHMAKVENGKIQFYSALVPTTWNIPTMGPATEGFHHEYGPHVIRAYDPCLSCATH
T1 sequence (D9PYF7 40-275 partner): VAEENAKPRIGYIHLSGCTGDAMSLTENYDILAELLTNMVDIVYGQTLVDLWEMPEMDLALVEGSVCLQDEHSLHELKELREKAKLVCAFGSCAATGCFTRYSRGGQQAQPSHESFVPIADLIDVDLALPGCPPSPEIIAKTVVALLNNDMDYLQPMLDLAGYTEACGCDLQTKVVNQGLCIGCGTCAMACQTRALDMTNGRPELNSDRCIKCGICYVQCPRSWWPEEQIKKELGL

[2] = biological target: T1, Frh complex (FrhABG), F420-reducing [NiFe]-hydrogenase; experiment: cryo-EM structure; type: binding; conditions: 25 uM FAD in purification buffers; site in FrhB near the [4Fe-4S] cluster; ribose and ribitol density missing

| SMILES | cryo-EM structure (map with versus without F420) [1] | cryo-EM structure [2] |
| --- | --- | --- |
| C[C@H](OP(=O)(O)OC[C@@H](O)[C@@H](O)[C@@H](O)Cn1c2nc(=O)[nH]c(=O)c-2cc2ccc(O)cc21)C(=O)N[C@@H](CCC(=O)N[C@@H](CCC(=O)O)C(=O)O)C(=O)O [F420] | We conclude that it represents the isoalloxazine ring of the F420 substrate. |  |
| Cc1cc2nc3c(=O)[nH]c(=O)nc-3n(C[C@H](O)[C@H](O)[C@H](O)COP(=O)(O)OP(=O)(O)OC[C@H]3O[C@@H](n4cnc5c(N)ncnc54)[C@H](O)[C@@H]3O)c2cc1C [FAD] |  | could be interpreted as the isoalloxazine ring of the FAD cofactor |
